We go through 36 molecules from BindingDB's records for doi:10.1016/j.bioorg.2015.02.002 (Bezmialem Vakif University, 2015).

Structures are written as SMILES.

One may read the IC50 as the concentration that inhibits the measured activity by half.

In one experiment the target is Acetylcholinesterase (Electrophorus electricus, UniProt O42275). The experiment in a line: Anticholinesterase Activity Assays. The following applies: pH 8. As to the method: (§1) The substrates of the reaction were acetylthiocholine iodide and butyrylthiocholine iodide. 5,5'-dithio-bis(2-nitrobenzoic) acid (DTNB) was used for the measurement of the anticholinesterase activity. The solutions of the samples and galantamine in n-propanol were prepared at concentration of 4000 µg/mL. […] 10 µL of DTNB solution was prepared by adding 2.0 mL of pH 7.0 and 4.0 mL of pH 8.0 phosphate buffers to a mixture of 1.0 mL of 16 mg/mL DTNB and 7.5 mg/mL NaHCO3 in pH 7.0 phosphate buffers. The reaction was initiated by the addition of 10 µL (7.1 mM) acetylthiocholine iodide (or 0.79 mM butyrylthiocholine iodide). Propyl alcohol was used as a solvent to controls. The hydrolysis of these substrates was monitored at 412 nm.
Sequence of Acetylcholinesterase (O42275 whole entry): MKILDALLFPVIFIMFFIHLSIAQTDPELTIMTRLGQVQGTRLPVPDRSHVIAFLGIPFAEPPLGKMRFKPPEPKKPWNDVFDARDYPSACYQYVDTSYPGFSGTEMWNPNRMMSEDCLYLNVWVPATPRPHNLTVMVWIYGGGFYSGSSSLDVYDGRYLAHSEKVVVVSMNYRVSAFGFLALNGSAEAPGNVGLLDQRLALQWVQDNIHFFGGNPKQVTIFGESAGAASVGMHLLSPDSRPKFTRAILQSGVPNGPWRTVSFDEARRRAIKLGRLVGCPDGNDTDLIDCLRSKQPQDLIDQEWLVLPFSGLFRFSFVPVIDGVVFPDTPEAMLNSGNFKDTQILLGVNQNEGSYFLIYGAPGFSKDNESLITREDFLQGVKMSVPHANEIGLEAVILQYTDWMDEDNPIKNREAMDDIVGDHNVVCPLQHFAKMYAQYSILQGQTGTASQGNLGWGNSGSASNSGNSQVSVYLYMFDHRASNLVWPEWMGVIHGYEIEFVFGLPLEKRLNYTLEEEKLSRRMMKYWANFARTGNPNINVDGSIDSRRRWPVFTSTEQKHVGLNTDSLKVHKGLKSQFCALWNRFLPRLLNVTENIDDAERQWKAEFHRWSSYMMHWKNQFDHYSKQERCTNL

The target of experiment [1] is Carboxylic ester hydrolase (Equus caballus, UniProt Q9N1N9). Nature of the experiment: Anticholinesterase Activity Assays. As to conditions: pH 8. As to the method:
as §1

Sequence of Carboxylic ester hydrolase (Q9N1N9 whole entry): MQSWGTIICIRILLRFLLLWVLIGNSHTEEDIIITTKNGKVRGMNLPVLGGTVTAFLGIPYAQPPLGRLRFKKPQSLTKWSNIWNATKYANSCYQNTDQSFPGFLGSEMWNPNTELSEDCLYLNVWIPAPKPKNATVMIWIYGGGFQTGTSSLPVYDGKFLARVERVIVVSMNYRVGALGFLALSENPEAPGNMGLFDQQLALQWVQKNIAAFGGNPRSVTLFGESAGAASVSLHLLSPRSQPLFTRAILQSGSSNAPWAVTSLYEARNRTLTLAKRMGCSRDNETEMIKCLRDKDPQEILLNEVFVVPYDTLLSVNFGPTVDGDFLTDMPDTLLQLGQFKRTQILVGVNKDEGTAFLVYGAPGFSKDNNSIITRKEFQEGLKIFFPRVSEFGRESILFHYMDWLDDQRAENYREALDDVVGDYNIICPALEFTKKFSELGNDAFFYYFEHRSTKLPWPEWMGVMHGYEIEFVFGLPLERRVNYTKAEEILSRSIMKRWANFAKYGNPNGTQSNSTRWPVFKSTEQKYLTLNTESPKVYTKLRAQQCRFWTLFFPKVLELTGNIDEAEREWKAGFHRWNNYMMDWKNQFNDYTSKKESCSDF

On to `O=C(Nc1ccc(Cl)cc1)Nc1nc(-c2cc3ccccc3oc2=O)cs1` [1-(4-Chlorophenyl)-3-(4-(2-oxo-2H-chromen-3-yl)thiazol-2-yl)urea (e11)], for which the IC50 against Acetylcholinesterase stood at 38.1 µM; in experiment [1], 88.4 µM.

As for `O=C(Nc1cccc(F)c1)Nc1nc(-c2cc3ccccc3oc2=O)cs1` [1-(3-Fluorophenyl)-3-(4-(2-oxo-2H-chromen-3-yl)thiazol-2-yl)urea (e8)], the values for the IC50 (against Acetylcholinesterase; in experiment [1]) were 58.1 µM and 62.2 µM, respectively.

`COc1cccc2cc(-c3csc(NC(=O)Nc4ccc(Br)cc4)n3)c(=O)oc12` [1-(4-Bromophenyl)-3-(4-(8-methoxy-2-oxo-2H-chromen-3-yl)thiazol-2-yl)urea (e25)] returned a concentration for half-maximal inhibition (IC50) against Acetylcholinesterase of 69.1 µM.

As to `COc1cccc2cc(-c3csc(NC(=O)Nc4ccc(I)cc4)n3)c(=O)oc12` [1-(4-Iodophenyl)-3-(4-(8-methoxy-2-oxo-2H-chromen-3-yl)thiazol-2-yl)urea (e26)], the IC50 at Acetylcholinesterase was 61.3 µM; in experiment [1] it was 159 µM.

Regarding `O=C(Nc1ccc(I)cc1)Nc1nc(-c2cc3cc([N+](=O)[O-])ccc3oc2=O)cs1` [1-(4-Iodophenyl)-3-(4-(6-nitro-2-oxo-2H-chromen-3-yl)thiazol-2-yl)urea (e34)], the results for the IC50 (against Acetylcholinesterase; in experiment [1]) were 26.7 µM and 97.5 µM, respectively.

`Cc1ccc(NC(=O)Nc2nc(-c3cc4ccccc4oc3=O)cs2)cc1` [1-(p-tolyl)-3-(4-(2-oxo-2H-chromen-3-yl)thiazol-2-yl)urea (e4)]: the IC50 on Acetylcholinesterase worked out at 81.5 µM; in experiment [1], 54.8 µM.

Consider `O=C(Nc1ccc(Cl)cc1)Nc1nc(-c2cc3cc([N+](=O)[O-])ccc3oc2=O)cs1` [1-(4-Chlorophenyl)-3-(4-(6-nitro-2-oxo-2H-chromen-3-yl)thiazol-2-yl)urea (e32)], for which the results for the IC50 (against Acetylcholinesterase; in experiment [1]) were 129 µM and 78.3 µM, respectively.

`O=C(Nc1ccc([N+](=O)[O-])cc1)Nc1nc(-c2cc3ccccc3oc2=O)cs1` [1-(4-Nitrophenyl)-3-(4-(2-oxo-2H-chromen-3-yl)thiazol-2-yl)urea (e6)]: the IC50 at Acetylcholinesterase came out at 74.8 µM; in experiment [1], 52.7 µM.

Take `O=C(Nc1ccc(Br)cc1)Nc1nc(-c2cc3ccccc3oc2=O)cs1` [1-(4-Bromophenyl)-3-(4-(2-oxo-2H-chromen-3-yl)thiazol-2-yl)urea (e12)]: the IC50 on Acetylcholinesterase worked out at 121 µM; in experiment [1], 95.4 µM.

As for `COc1cccc2cc(-c3csc(NC(=O)Nc4ccccc4)n3)c(=O)oc12` [1-(4-(8-Methoxy-2-oxo-2H-chromen-3-yl)thiazol-2-yl)-3-phenylurea (e17)], the IC50 on Acetylcholinesterase is 84.1 µM; in experiment [1] it was 77.5 µM.

As to `COc1cccc2cc(-c3csc(NC(=O)Nc4ccc(Cl)cc4)n3)c(=O)oc12` [1-(4-(8-Methoxy-2-oxo-2H-chromen-3-yl)thiazol-2-yl)-3-(4-chlorophenyl)urea (e24)], the IC50 on Acetylcholinesterase amounted to 107 µM; in experiment [1], 70.6 µM.

Take `COc1cccc(NC(=O)Nc2nc(-c3cc4cccc(OC)c4oc3=O)cs2)c1` [1-(4-(8-Methoxy-2-oxo-2H-chromen-3-yl)thiazol-2-yl)-3-(3-methoxyphenyl)urea (e14)]: the figures for the IC50 (against Acetylcholinesterase; in experiment [1]) were 83.8 µM and 56.5 µM, respectively.

`COc1cccc2cc(-c3csc(NC(=S)Nc4ccc(C)cc4)n3)c(=O)oc12` [1-(4-(8-Methoxy-2-oxo-2H-chromen-3-yl)thiazol-2-yl)-3-(ptolyl)thiourea (f4)]: the IC50 came out at 51.9 µM on Acetylcholinesterase and 36.5 µM in experiment [1].

As to `COc1cccc2cc(-c3csc(NC(=O)Nc4ccc([N+](=O)[O-])cc4)n3)c(=O)oc12` [1-(4-(8-Methoxy-2-oxo-2H-chromen-3-yl)thiazol-2-yl)-3-(4-nitrophenyl)urea (e19)], the figures for the IC50 (at Acetylcholinesterase; in experiment [1]) were 46.5 µM and 83.7 µM, respectively.

`COc1cccc2cc(-c3csc(NC(=S)Nc4ccccc4)n3)c(=O)oc12` [1-(4-(8-Methoxy-2-oxo-2H-chromen-3-yl)thiazol-2-yl)-3-phenylthiourea (f5)]: the IC50 against Acetylcholinesterase came to 46 µM; in experiment [1] it was 21.8 µM.

For the molecule `O=c1oc2ccccc2cc1-c1csc(NC(=S)Nc2cccc(F)c2)n1` [1-(3-Fluorophenyl)-3-(4-(2-oxo-2H-chromen-3-yl)thiazol-2-yl)thiourea (f1)], the results for the IC50 (on Acetylcholinesterase; in experiment [1]) were 16.4 µM and 20.8 µM, respectively.

Take `O=c1oc2ccccc2cc1-c1csc(NC(=S)Nc2ccc(Cl)cc2)n1` [1-(4-Chlorophenyl)-3-(4-(2-oxo-2H-chromen-3-yl)thiazol-2-yl)thiourea (f2)]: the values for the IC50 (against Acetylcholinesterase; in experiment [1]) were 7.63 µM and 24.3 µM, respectively.

For `O=C(Nc1ccc(F)cc1)Nc1nc(-c2cc3cc([N+](=O)[O-])ccc3oc2=O)cs1` [1-(4-Fluorophenyl)-3-(4-(6-nitro-2-oxo-2H-chromen-3-yl)thiazol-2-yl)urea (e31)], the IC50 against Acetylcholinesterase worked out at 134 µM; in experiment [1] it was 4.93 µM.

On to `COc1cccc2cc(-c3csc(NC(=O)Nc4ccc(C)cc4)n3)c(=O)oc12` [1-(4-(8-Methoxy-2-oxo-2H-chromen-3-yl)thiazol-2-yl)-3-(ptolyl)urea (e16)], for which the IC50 against Acetylcholinesterase came to 82.1 µM; in experiment [1], 95.6 µM.

For the molecule `COc1cccc2cc(-c3csc(NC(=O)Nc4cccc(F)c4)n3)c(=O)oc12` [1-(3-Fluorophenyl)-3-(4-(8-methoxy-2-oxo-2H-chromen-3-yl)thiazol-2-yl)urea (e21)], the concentration for half-maximal inhibition (IC50) against Acetylcholinesterase is 67 µM; in experiment [1] it was 110 µM.

For the molecule `COc1cccc2cc(-c3csc(NC(=S)Nc4ccc(Cl)cc4)n3)c(=O)oc12` [1-(4-(8-Methoxy-2-oxo-2H-chromen-3-yl)thiazol-2-yl)-3-(4-chlorophenyl)thiourea (f8)], the figures for the half-maximal inhibitory concentration (IC50) (against Acetylcholinesterase; in experiment [1]) were 4.58 µM and 12.1 µM, respectively.

For `COc1cccc(NC(=O)Nc2nc(-c3cc4cc([N+](=O)[O-])ccc4oc3=O)cs2)c1` [1-(3-Methoxyphenyl)-3-(4-(6-nitro-2-oxo-2H-chromen-3-yl)thiazol-2-yl)urea (e27)], the half-inhibitory concentration (IC50) at Acetylcholinesterase is 38.7 µM; in experiment [1], 77.5 µM.

Turning to `COc1ccc(NC(=O)Nc2nc(-c3cc4ccccc4oc3=O)cs2)cc1` [1-(4-Methoxyphenyl)-3-(4-(2-oxo-2H-chromen-3-yl)thiazol-2-yl)urea (e3)], the IC50 against Acetylcholinesterase stood at 95.9 µM; in experiment [1], 82.5 µM.

As to `COc1ccccc1NC(=O)Nc1nc(-c2cc3ccccc3oc2=O)cs1` [1-(2-Methoxyphenyl)-3-(4-(2-oxo-2H-chromen-3-yl)thiazol-2-yl)urea (e1)], the IC50 against Acetylcholinesterase was 38 µM; in experiment [1] it was 30.3 µM.

Turning to `O=C(Nc1ccc(F)cc1)Nc1nc(-c2cc3ccccc3oc2=O)cs1` [1-(4-Fluorophenyl)-3-(4-(2-oxo-2H-chromen-3-yl)thiazol-2-yl)urea (e9)], the IC50 at Acetylcholinesterase came to 101 µM; in experiment [1] it was 84.9 µM.

On to `Cc1ccc(NC(=O)Nc2nc(-c3cc4cc([N+](=O)[O-])ccc4oc3=O)cs2)cc1` [1-(4-(6-Nitro-2-oxo-2H-chromen-3-yl)thiazol-2-yl)-3-(ptolyl)urea (e29)], for which the IC50 was 93.9 µM at Acetylcholinesterase and 195 µM in experiment [1].

Regarding `O=C(Nc1ccccc1)Nc1nc(-c2cc3cc([N+](=O)[O-])ccc3oc2=O)cs1` [1-(4-(6-Nitro-2-oxo-2H-chromen-3-yl)thiazol-2-yl)-3-phenylurea (e30)], the IC50 is 103 µM on Acetylcholinesterase and 84.5 µM in experiment [1].

Take `O=C(Nc1ccc(Br)cc1)Nc1nc(-c2cc3cc([N+](=O)[O-])ccc3oc2=O)cs1` [1-(4-Bromophenyl)-3-(4-(6-nitro-2-oxo-2H-chromen-3-yl)thiazol-2-yl)urea (e33)]: the figures for the IC50 (on Acetylcholinesterase; in experiment [1]) were 46.2 µM and 92.5 µM, respectively.

Regarding `COc1cccc(NC(=O)Nc2nc(-c3cc4ccccc4oc3=O)cs2)c1` [1-(3-Methoxyphenyl)-3-(4-(2-oxo-2H-chromen-3-yl)thiazol-2-yl)urea (e2)], the IC50 on Acetylcholinesterase was 52.8 µM; in experiment [1], 75 µM.

Take `COc1cccc2cc(-c3csc(NC(=O)Nc4cccc(Cl)c4)n3)c(=O)oc12` [1-(4-(8-Methoxy-2-oxo-2H-chromen-3-yl)thiazol-2-yl)-3-(3-chlorophenyl)urea (e23)]: the IC50 at Acetylcholinesterase amounted to 105 µM; in experiment [1], 62.9 µM.

In the case of `COc1cccc2cc(-c3csc(NC(=S)Nc4cccc(F)c4)n3)c(=O)oc12` [1-(4-(8-Methoxy-2-oxo-2H-chromen-3-yl)thiazol-2-yl)-3-(3-fluorophenyl)thiourea (f6)], the figures for the IC50 (against Acetylcholinesterase; in experiment [1]) were 18.4 µM and 18 µM, respectively.

Consider `O=C(Nc1ccc(I)cc1)Nc1nc(-c2cc3ccccc3oc2=O)cs1` [1-(4-Iodophenyl)-3-(4-(2-oxo-2H-chromen-3-yl)thiazol-2-yl)urea (e13)], for which the values for the IC50 (against Acetylcholinesterase; in experiment [1]) were 91.2 µM and 112 µM, respectively.

For `O=C(Nc1nc(-c2cc3ccccc3oc2=O)cs1)Nc1ccccc1F` [1-(2-Flurophenyl)-3-(4-(2-oxo-2H-chromen-3-yl)thiazol-2-yl)urea (e7)], the IC50 on Acetylcholinesterase was 31.5 µM; in experiment [1], 34.5 µM.

Turning to `COc1cccc2cc(-c3csc(NC(=S)Nc4ccc(F)cc4)n3)c(=O)oc12` [1-(4-(8-Methoxy-2-oxo-2H-chromen-3-yl)thiazol-2-yl)-3-(4-fluorophenyl)thiourea (f7)], the IC50 on Acetylcholinesterase is 23.3 µM; in experiment [1] it was 46.1 µM.

As for `O=C(Nc1cccc(Cl)c1)Nc1nc(-c2cc3ccccc3oc2=O)cs1` [1-(3-Chlorophenyl)-3-(4-(2-oxo-2H-chromen-3-yl)thiazol-2-yl)urea (e10)], the IC50 was found to be 111 µM against Acetylcholinesterase and 66.6 µM in experiment [1].

In the case of `COc1cccc2cc(-c3csc(NC(=O)Nc4ccccc4F)n3)c(=O)oc12` [1-(2-Fluorophenyl)-3-(4-(8-methoxy-2-oxo-2H-chromen-3-yl)thiazol-2-yl)urea (e20)], the IC50 on Acetylcholinesterase was 66.2 µM; in experiment [1], 79.6 µM.
